From patent US7396837B2, “Antitumoral analogs of lamellarins” (Pharma Mar, S.A.U., priority 2002, dated 2008)

What was measured:
Assay type in all cases: cell-based
HT-29 = experiment: SRB colorimetric cell growth inhibition assay, HT-29; details: Homo sapiens, HT-29, HT-29; for GI50: GI=growth inhibition, read-out: GI50 HT-29; for CC50: cell killing (cytotoxic effect), read-out: LC50 HT-29; for IC (TGI): total growth inhibition (cytostatic effect), read-out: TGI HT-29
Excerpt: (§1) The finality of these assays is to interrupt the growth of an “in vitro” tumor cell culture by means a continued exhibition of the cells to the sample to be testing.
(§2) A colorimetric type of assay, using sulforhodamine B (SRB) reaction has been adapted for a quantitative measurement of cell growth and viability (following the technique described by P. A. Skehan, et al., J. Natl. Cancer Inst. 1990, 82, 1107-1112).
(§3) This form of assay employs 96 well cell culture microplates of 9 mm diameter (T. Mosmann et al., J. of Immunological Methods 1983, 65, 55-63; G. T. Faircloth et al., J. of Tissue and Culture Methods 1988, 11, 201-205).
(§4) Most of the cell lines are obtained from American Type Culture Collection (ATCC) derived from different human cancer types.
(§5) The values for mean +/− SD of data from triplicate wells are calculated. Some parameters for cellular responses can be calculated: GI=growth inhibition, TGI=total growth inhibition (cytostatic effect) and LC=cell killing (cytotoxic effect).

LoVo = experiment: SRB colorimetric cell growth inhibition assay, LoVo; details: Homo sapiens, LoVo; for GI50: GI=growth inhibition, read-out: GI50 LOVO; for CC50: cell killing (cytotoxic effect), read-out: LC50 LOVO; for IC (TGI): total growth inhibition (cytostatic effect), read-out: TGI LOVO
Excerpt: as §1, §2, §3, §4, §5

SK-MEL-28 = experiment: SRB colorimetric cell growth inhibition assay, SK-MEL-28; details: Homo sapiens, SK-MEL-28, MEL-28
Excerpt: as §1, §2, §3, §4, §5

LoVo-Dox = experiment: SRB colorimetric cell growth inhibition assay, LoVo-Dox (MDR); details: Homo sapiens, LOVO-DOX; for GI50: GI=growth inhibition, read-out: GI50 LOVO-DOX; for CC50: cell killing (cytotoxic effect), read-out: LC50 LOVO-DOX; for IC (TGI): total growth inhibition (cytostatic effect), read-out: TGI LOVO-DOX
Excerpt: as §1, §2, §3, §4, §5

A-549 = experiment: SRB colorimetric cell growth inhibition assay, A-549; details: Homo sapiens, A549, A-549; for GI50: GI=growth inhibition, read-out: GI50 A-549; for CC50: cell killing (cytotoxic effect), read-out: LC50 A-549; for IC (TGI): total growth inhibition (cytostatic effect), read-out: TGI A-549
Excerpt: as §1, §2, §3, §4, §5

PANC-1 = experiment: SRB colorimetric cell growth inhibition assay, PANC-1; details: Homo sapiens, PANC-1, PANC-1; for GI50: GI=growth inhibition, read-out: GI50 PANC-1; for CC50: cell killing (cytotoxic effect), read-out: LC50 PANC-1; for IC (TGI): total growth inhibition (cytostatic effect), read-out: TGI PANC-1
Excerpt: as §1, §2, §3, §4, §5

IGROV-ET = experiment: SRB colorimetric cell growth inhibition assay, IGROV-ET (ET-743 resistant); details: Homo sapiens, IGROV-ET; for GI50: GI=growth inhibition, read-out: GI50 IGROV-ET; for CC50: cell killing (cytotoxic effect), read-out: LC50 IGROV-ET; for IC (TGI): total growth inhibition (cytostatic effect), read-out: TGI IGROV-ET
Excerpt: as §1, §2, §3, §4, §5

DU-145 = experiment: SRB colorimetric cell growth inhibition assay, DU-145; details: Homo sapiens, DU-145, DU-145; for GI50: GI=growth inhibition, read-out: GI50 DU-145; for CC50: cell killing (cytotoxic effect), read-out: LC50 DU-145; for IC (TGI): total growth inhibition (cytostatic effect), read-out: TGI DU-145
Excerpt: as §1, §2, §3, §4, §5

LNCaP = experiment: SRB colorimetric cell growth inhibition assay, LNCaP; details: Homo sapiens, LNCaP, LN-caP; for GI50: GI=growth inhibition, read-out: GI50 LN-caP; for CC50: cell killing (cytotoxic effect), read-out: LC50 LN-caP; for IC (TGI): total growth inhibition (cytostatic effect), read-out: TGI LN-caP
Excerpt: as §1, §2, §3, §4, §5

HeLa-APL = experiment: SRB colorimetric cell growth inhibition assay, HeLa-APL (aplidine resistant); details: Homo sapiens, HELA-APL; for GI50: GI=growth inhibition, read-out: GI50 HELA-APL; for CC50: cell killing (cytotoxic effect), read-out: LC50 HELA-APL; for IC (TGI): total growth inhibition (cytostatic effect), read-out: TGI HELA-APL
Excerpt: as §1, §2, §3, §4, §5

IGROV = experiment: SRB colorimetric cell growth inhibition assay, IGROV; details: Homo sapiens, IGROV; for GI50: GI=growth inhibition, read-out: GI50 IGROV; for CC50: cell killing (cytotoxic effect), read-out: LC50 IGROV; for IC (TGI): total growth inhibition (cytostatic effect), read-out: TGI IGROV
Excerpt: as §1, §2, §3, §4, §5

HeLa = experiment: SRB colorimetric cell growth inhibition assay, HeLa; details: Homo sapiens, HeLa; for GI50: GI=growth inhibition, read-out: GI50 HELA; for CC50: cell killing (cytotoxic effect), read-out: LC50 HELA; for IC (TGI): total growth inhibition (cytostatic effect), read-out: TGI HELA
Excerpt: as §1, §2, §3, §4, §5

K-562 = experiment: SRB colorimetric cell growth inhibition assay, K-562; details: Homo sapiens, K562, K-562; for GI50: GI=growth inhibition, read-out: GI50 K-562; for CC50: cell killing (cytotoxic effect), read-out: LC50 K-562; for IC (TGI): total growth inhibition (cytostatic effect), read-out: TGI K-562
Excerpt: as §1, §2, §3, §4, §5

SK-BR-3 = experiment: SRB colorimetric cell growth inhibition assay, SK-BR-3; details: Homo sapiens, SK-BR-3, SK-BR-3
Excerpt: as §1, §2, §3, §4, §5

Compound | GI50 (HT-29) [nM] | CC50 (HT-29) [nM] | IC (TGI) (HT-29) [nM] | GI50 (LoVo) [nM] | CC50 (LoVo) [nM] | IC (TGI) (LoVo) [nM] | GI50 (LoVo-Dox) [nM] | CC50 (LoVo-Dox) [nM] | IC (TGI) (LoVo-Dox) [nM] | GI50 (A-549) [nM] | CC50 (A-549) [nM] | IC (TGI) (A-549) [nM] | GI50 (PANC-1) [nM] | CC50 (PANC-1) [nM] | IC (TGI) (PANC-1) [nM] | GI50 (IGROV-ET) [nM] | CC50 (IGROV-ET) [nM] | IC (TGI) (IGROV-ET) [nM] | GI50 (DU-145) [nM] | CC50 (DU-145) [nM] | other results
COc1cc2c(cc1O)oc(=O)c1c2c(-c2ccc(OC)c(OC)c2)c2c3cc(OC)c(O)cc3ccn21 [Compound 233] | 19500 | 19500 | 19500 | 545 | 19500 | 1310 | 1050 | 19500 | 15400 | 312 | 19500 | 2060 | 341 | 19500 | 19500 | 107 | 19500 | 721 | 78.3 | 19500 | GI50 (SK-MEL-28; GI=growth inhibition, read-out: GI50 MEL-28): 169 nM; CC50 (SK-MEL-28; cell killing (cytotoxic effect), read-out: LC50 MEL-28): 19500 nM; IC (TGI) (SK-MEL-28; total growth inhibition (cytostatic effect), read-out: TGI MEL-28): 4750 nM; IC (TGI) (DU-145): 180 nM; GI50 (LNCaP): 126 nM; CC50 (LNCaP): 3720 nM; IC (TGI) (LNCaP): 557 nM; GI50 (HeLa-APL): 417 nM; CC50 (HeLa-APL): 14300 nM; IC (TGI) (HeLa-APL): 3150 nM; GI50 (IGROV): 49.9 nM; CC50 (IGROV): 19500 nM; IC (TGI) (IGROV): 142 nM; GI50 (HeLa): 191 nM; CC50 (HeLa): 16000 nM; IC (TGI) (HeLa): 3820 nM; GI50 (K-562): 95.8 nM; CC50 (K-562): 8610 nM; IC (TGI) (K-562): 1090 nM
COc1cc(-c2c3n(c4c(=O)[nH]c5cc(O)c(OC)cc5c24)CCc2cc(O)c(OC)cc2-3)ccc1O [Compound 4] | 2500 | 14600 | 6030 | 468 | 4360 | 1080 | 2000 | 17800 | 5950 | 543 | 10000 | 1210 | 480 | 5990 | 1340 | 599 | 13100 | 1640 | 218 | 2140 | IC (TGI) (DU-145): 667 nM; GI50 (LNCaP): 332 nM; CC50 (LNCaP): 1850 nM; IC (TGI) (LNCaP): 785 nM; GI50 (HeLa-APL): 238 nM; CC50 (HeLa-APL): 1950 nM; IC (TGI) (HeLa-APL): 681 nM; GI50 (IGROV): 402 nM; CC50 (IGROV): 11300 nM; IC (TGI) (IGROV): 2000 nM; GI50 (SK-BR-3; GI=growth inhibition, read-out: GI50 SK-BR-3): 338 nM; CC50 (SK-BR-3; cell killing (cytotoxic effect), read-out: LC50 SK-BR-3): 1470 nM; IC (TGI) (SK-BR-3; total growth inhibition (cytostatic effect), read-out: TGI SK-BR-3): 703 nM; GI50 (HeLa): 338 nM; CC50 (HeLa): 1390 nM; IC (TGI) (HeLa): 685 nM; GI50 (K-562): 396 nM; CC50 (K-562): 4440 nM; IC (TGI) (K-562): 937 nM
